Test results from ChEMBL document CHEMBL1949522, “Acremostrictin, a highly oxygenated metabolite from the marine fungus Acremonium strictum” (J Nat Prod, 2011).
Converted amounts (≈) assume the structure as drawn. The source made the active and inactive calls. The calls are words filed in the database; no cut-off is given here.

Experiments:
[1] = tested on: Radical scavenging activity; assay: Antioxidant activity assessed as DPPH radical-scavenging activity after 30 mins by spectrophotometric analysis; format: functional
HaCaT = assay: Antioxidant activity in human HaCaT cells assessed as inhibition of H2O2-induced cell death pretreated for 1 hr prior to H2O2 challenge measured after 24 hrs by spectrophotometric analysis; format: functional, cell-based
Bacillus subtilis = assay: Antibacterial activity against Bacillus subtilis ATCC 6633 after 24 hrs; format: functional; details: ATCC 6633, 24 h
Escherichia coli = assay: Antibacterial activity against Escherichia coli ATCC 35270 after 24 hrs; format: functional; details: ATCC 35270, 24 h
Micrococcus luteus = assay: Antibacterial activity against Micrococcus luteus IFO 12708 after 24 hrs; format: functional; details: IFO 12708, 24 h
Staphylococcus aureus = assay: Antibacterial activity against Staphylococcus aureus ATCC 6538p after 24 hrs; format: functional
Salmonella typhimurium = assay: Antibacterial activity against Salmonella Typhimurium ATCC 14028 after 24 hrs; format: functional, Salmonella enterica subsp. enterica serovar Typhimurium; details: Salmonella enterica, ATCC 14028, 24 h
K562 = assay: Anticancer activity against human K562 cells; format: functional, cell-based
Proteus vulgaris = assay: Antibacterial activity against Proteus vulgaris ATCC 3851 after 24 hrs; format: functional; details: ATCC 3851, 24 h

IC50 [1]: 2100 µM
MIC (Bacillus subtilis): > 100 µg/mL
MIC (Escherichia coli): > 100 µg/mL
MIC (Micrococcus luteus): 50 µg/mL (≈ 198 µM)
MIC (Staphylococcus aureus): > 100 µg/mL
MIC (Salmonella typhimurium): 50 µg/mL (≈ 198 µM)
MIC (Proteus vulgaris): 12.5 µg/mL (≈ 49.6 µM)
Structure (SMILES): CC1=C[C@@H]2C[C@]3(C)OC(=O)[C@@](O)([C@H]3C)[C@]2(O)C1=O (relative stereo)
Activity [1]: Dose-dependent effect
inhibition (HaCaT): Dose-dependent effect
Activity (K562): inactive
